From patent US10434186B2, “Functionalized linear ligands and complexes thereof” (LUMIPHORE, INC., priority 2014, dated 2019)
Where a name gives a salt, the structure may show the parent alone.

How the values were obtained:
[1] = Eu(III) complex of the ligand; cited from earlier work
[2] = Molar extinction coefficient from absorption spectrum in 0.1 M TRIS buffer; assay type: physicochemical
Description: This corresponds to 1.218×10^−6 moles of ligand in 50 mL and c=2.436×10^−5 M. A=ϵcl, at λmax, A=0.42853 at 327 nm. […] This corresponds to 2.472×10^−6 moles of ligand in 50 mL and c=4.945×10^−5 M. A=ϵcl; at λmax, A=0.96915 at 315 nm.

[3] = in 0.5 M H2SO4; cited from earlier work

O=C(NCCCN(CCCCN(CCCNC(=O)c1cccc(=O)n1O)C(=O)c1cccc(=O)n1O)C(=O)c1cccc(=O)n1O)c1cccc(=O)n1O [3,4,3-LI(1,2-HOPO)]
quantum yield of Eu(III) complex [1]: ~20%

Cl.NCCOCCNC(=O)C(CCCN(CCCNC(=O)c1cccc(=O)n1O)C(=O)c1cccc(=O)n1O)N(CCCNC(=O)c1cccc(=O)n1O)C(=O)c1cccc(=O)n1O (centres unmarked) [Compound 2-8]
ϵ280/ϵ327 ratio for protein labelling ([2]; 0.1 M TRIS buffer pH 7.4): 3.11 | extinction coefficient ϵ at 327 nm (λmax) ([2]; 0.1 M TRIS buffer pH 7.4, 1 cm cuvette, based on CHN): ~17,595 M^−1 cm^−1 | extinction coefficient at 280 nm ([2]; 0.1 M TRIS buffer pH 7.4, 280 nm): ~5655 M⁻¹ cm⁻¹

C=C[C@H]1C[N@@]2CC[C@H]1C[C@H]2[C@H](O)c1ccnc2ccc(OC)cc12 [Quinine Sulfate]
reference quantum yield Φref [3]: 0.546
